Source: patent US12110276B2 (Genentech, Inc., priority 2021, dated 2024)

Legend:
[1] = target: TEAD1 (Homo sapiens (Human), UniProt P28347); experiment: TR-FRET lipid pocket probe competition assay (Lipid HTRF), TEAD1; type: binding; conditions: 4 hours pre-incubation; read-out: Lipid HTRF TEAD1 IC50;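 also: His-tagged TEAD1 with biotinylated probe, detected via Europium anti-His and XL665 streptavidin, probe displacement lowers TR-FRET signal, IC50 from four-parameter nonlinear fit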
[2] = target: TEAD4 (Homo sapiens (Human), UniProt Q15561); experiment: TR-FRET lipid pocket probe competition assay (Lipid HTRF), TEAD4; type: binding; conditions: 4 hours pre-incubation; read-out: Lipid HTRF TEAD4 IC50;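 also: His-tagged TEAD4 with biotinylated lipid-pocket probe, read by Europium anti-His and XL665 streptavidin, where probe displacement lowers the TR-FRET signal, IC50 from a four-parameter fit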
Procedure: His-tagged TEAD proteins are pre-incubated with TEAD project compounds for 30 minutes or 4 hours at room temperature. Biotinylated lipid pocket probes are then added to the TEAD/Compound mixture and incubated for 60 minutes at room temperature. The lipid pocket probe competes with the test compound for the TEAD lipid pocket until equilibrium is reached. After 60 minutes, Europium labelled anti-His (Perkin Elmer #AD0110) and XL665 labelled streptavidin (CIS Bio 610SAXAC) are added to the TEAD/test compound/lipid pocket mixture and incubated for 30 minutes or 4 hours. […] If a TEAD lipid pocket binder such as binds and displaces the lipid pocket probe, the disruption of the TEAD:probe interaction results in a decrease in TR-FRET signal. The potency of compounds as TEAD lipid pocket binders is determined by IC50 value generated using a non-linear 4 parameter curve fit.

[3] = target: TEAD2 (Homo sapiens (Human), UniProt Q15562);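 also: TR-FRET competition assay with His-tagged TEAD protein and a biotinylated lipid pocket probe, compound pre-incubated 30 min or 4 h at room temperature, displacement lowers signal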
Procedure: His-tagged TEAD proteins are pre-incubated with TEAD project compounds for 30 minutes or 4 hours at room temperature. Biotinylated lipid pocket probes are then added to the TEAD/Compound mixture and incubated for 60 minutes at room temperature. The lipid pocket probe competes with the test compound for the TEAD lipid pocket until equilibrium is reached. After 60 minutes, Europium labelled anti-His (Perkin Elmer #AD0110) and XL665 labelled streptavidin (CIS Bio 610SAXAC) are added to the TEAD/test compound/lipid pocket mixture and incubated for 30 minutes or 4 hours. TR-FRET values are then measured using an EnVision multi-label plate reader (Perkin Elmer Cat #2104-0010A.) If the lipid pocket probe binds to TEAD as expected, a TR-FRET signal results from the proximity of anti-His Eu and XL665. If a TEAD lipid pocket binder such as binds and displaces the lipid pocket probe, the disruption of the TEAD:probe interaction results in a decrease in TR-FRET signal. The potency of compounds as TEAD lipid pocket binders is determined by IC50 value generated using a non-linear 4 parameter curve fit.

[4] = target: TEAD3 (Homo sapiens (Human), UniProt Q99594); experiment: TR-FRET lipid pocket probe competition assay (Lipid HTRF), TEAD3; type: binding; conditions: 4 hours pre-incubation; read-out: Lipid HTRF TEAD3 IC50
Sequence of TEAD3 (Q99594 whole entry, species assumed): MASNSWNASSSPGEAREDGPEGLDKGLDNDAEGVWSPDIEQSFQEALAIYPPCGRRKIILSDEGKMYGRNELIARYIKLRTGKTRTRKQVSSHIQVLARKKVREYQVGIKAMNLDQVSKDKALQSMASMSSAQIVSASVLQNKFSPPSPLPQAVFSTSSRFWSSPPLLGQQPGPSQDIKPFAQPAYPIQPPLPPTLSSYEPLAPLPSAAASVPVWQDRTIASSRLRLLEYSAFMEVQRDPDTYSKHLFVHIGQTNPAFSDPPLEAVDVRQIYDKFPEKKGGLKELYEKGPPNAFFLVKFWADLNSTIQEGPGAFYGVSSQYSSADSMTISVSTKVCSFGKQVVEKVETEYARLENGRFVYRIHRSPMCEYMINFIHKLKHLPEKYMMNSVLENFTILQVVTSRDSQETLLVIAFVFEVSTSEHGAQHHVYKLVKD

Sequence of TEAD2 (Q15562 whole entry, species assumed): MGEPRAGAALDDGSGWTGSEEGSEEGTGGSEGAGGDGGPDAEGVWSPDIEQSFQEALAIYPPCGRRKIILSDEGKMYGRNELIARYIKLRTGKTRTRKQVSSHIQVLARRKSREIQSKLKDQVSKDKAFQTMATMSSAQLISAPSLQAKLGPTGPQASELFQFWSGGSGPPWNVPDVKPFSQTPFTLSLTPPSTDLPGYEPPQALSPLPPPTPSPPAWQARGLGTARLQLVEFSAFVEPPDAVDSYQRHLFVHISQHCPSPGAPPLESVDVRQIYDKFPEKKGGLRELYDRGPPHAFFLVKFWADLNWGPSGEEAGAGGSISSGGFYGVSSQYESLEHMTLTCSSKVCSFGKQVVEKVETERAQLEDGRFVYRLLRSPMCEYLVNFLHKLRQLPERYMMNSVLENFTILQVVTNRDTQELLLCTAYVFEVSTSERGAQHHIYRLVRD
Sequence of TEAD1 (P28347 whole entry, species assumed): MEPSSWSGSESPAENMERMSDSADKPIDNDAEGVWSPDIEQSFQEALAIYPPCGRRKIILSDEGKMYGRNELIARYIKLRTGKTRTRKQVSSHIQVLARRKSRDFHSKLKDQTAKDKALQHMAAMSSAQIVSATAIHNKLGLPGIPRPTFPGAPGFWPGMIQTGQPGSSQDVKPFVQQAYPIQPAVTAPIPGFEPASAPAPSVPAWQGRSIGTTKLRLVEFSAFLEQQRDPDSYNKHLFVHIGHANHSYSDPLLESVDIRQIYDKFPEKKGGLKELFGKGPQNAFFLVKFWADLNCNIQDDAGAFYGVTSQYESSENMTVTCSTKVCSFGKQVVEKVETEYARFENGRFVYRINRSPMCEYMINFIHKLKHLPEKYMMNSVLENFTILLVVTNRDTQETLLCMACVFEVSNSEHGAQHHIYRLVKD
Sequence of TEAD4 (Q15561 whole entry, species assumed): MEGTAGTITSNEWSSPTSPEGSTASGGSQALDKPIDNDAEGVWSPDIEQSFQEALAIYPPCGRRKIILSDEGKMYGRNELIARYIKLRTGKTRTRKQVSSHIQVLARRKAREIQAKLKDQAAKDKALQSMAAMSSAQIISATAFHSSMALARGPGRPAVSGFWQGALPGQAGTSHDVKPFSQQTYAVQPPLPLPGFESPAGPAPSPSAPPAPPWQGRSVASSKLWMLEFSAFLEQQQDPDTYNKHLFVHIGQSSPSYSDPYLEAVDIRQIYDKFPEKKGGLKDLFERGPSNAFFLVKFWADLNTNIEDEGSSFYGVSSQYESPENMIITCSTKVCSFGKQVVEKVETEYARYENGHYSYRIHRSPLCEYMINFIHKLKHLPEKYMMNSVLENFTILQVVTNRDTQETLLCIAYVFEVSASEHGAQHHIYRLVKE

IC50 [1]	IC50 [2]	IC50 [3]	IC50 [4]	Structure (SMILES)
32 nM	16 nM	5.3 nM	43 nM	CC#CC(=O)N1CC(c2nn(-c3ccc(OC(F)(F)F)cc3)c3nccc([C@@H](O)CO)c23)C1 [Compound 71, (R)-1-(3-(4-(1,2-dihydroxyethyl)-1-(4-(trifluoromethoxy)phenyl)-1H-pyrazolo[3,4-b]pyridin-3-yl)azetidin-1-yl)but-2-yn-1-one]
32 nM	4.8 nM	140 nM	4100 nM	C=CC(=O)NCc1nn(-c2ccc(OC(F)(F)F)cc2)c2nccc(N3CC(C)(O)C3)c12 [Compound 74, N-((4-(3-hydroxy-3-methylazetidin-1-yl)-1-(4-(trifluoromethoxy)phenyl)-1H-pyrazolo[3,4-b]pyridin-3-yl)methyl)acrylamide]
45 nM	5.2 nM	19 nM	1100 nM	C=C(F)C(=O)N1CC(c2nn(-c3ccc(OC(F)(F)F)cc3)c3nccc(N4CC(O)(CO)C4)c23)C1 [Compound 75, 2-Fluoro-1-(3-(4-(3-hydroxy-3-(hydroxymethyl)azetidin-1-yl)-1-(4-(trifluoromethoxy)phenyl)-1H-pyrazolo[3,4-b]pyridin-3-yl)azetidin-1-yl)prop-2-en-1-one]
180 nM	150 nM	2800 nM	13000 nM	C=C(F)C(=O)N1CC(c2nn(-c3ccc(OC(F)(F)F)cc3)c3ccnc(N4CC(O)C4)c23)C1 [Compound 78, 2-fluoro-1-(3-(4-(3-hydroxyazetidin-1-yl)-1-(4-(trifluoromethoxy)phenyl)-1H-pyrazolo[4,3-c]pyridin-3-yl)azetidin-1-yl)prop-2-en-1-one]
19 nM	6.8 nM	60 nM	20 nM	N#Cc1ccnc2c1c(C1CN(C(=O)/C=C/CO)C1)nn2-c1ccc(OC(F)(F)F)cc1 [Compound 79]
18 nM	16 nM	68 nM	29 nM	C=C(F)C(=O)N1CC(c2nn(-c3ccc(OC(F)(F)F)cc3)c3nccc(C#N)c23)C1 [Compound 80, 3-(1-(2-fluoroacryloyl)azetidin-3-yl)-1-(4-(trifluoromethoxy)phenyl)-1H-pyrazolo[3,4-b]pyridine-4-carbonitrile]
32 nM	11 nM	24 nM	240 nM	C=C(F)C(=O)N1CC(c2nn(-c3ccc(OC(F)(F)F)cc3)c3nccc(N4CC(O)C4)c23)C1 [Compound 81, 2-Fluoro-1-(3-(4-(3-hydroxyazetidin-1-yl)-1-(4-(trifluoromethoxy)phenyl)-1H-pyrazolo[3,4-b]pyridin-3-yl)azetidin-1-yl)prop-2-en-1-one]
31 nM	4.8 nM	390 nM	270 nM	C=C(F)C(=O)N1CC(c2nn(-c3ccc(OC(F)(F)F)cc3)c3nccc(N4CC[C@H](O)C4=O)c23)C1 [Compound 82, (S)-1-(3-(1-(2-fluoroacryloyl)azetidin-3-yl)-1-(4-(trifluoromethoxy)phenyl)-1H-pyrazolo[3,4-b]pyridin-4-yl)-3-hydroxypyrrolidin-2-one]
23 nM	6.3 nM	89 nM	50000 nM	C=CC(=O)NCc1nn(-c2ccc(OC(F)(F)F)cc2)c2nccc(N3CC(F)C3)c12 [Compound 84, N-((4-(3-Fluoroazetidin-1-yl)-1-(4-(trifluoromethoxy)phenyl)-1H-pyrazolo[3,4-b]pyridin-3-yl)methyl)acrylamide]
140 nM	170 nM	480 nM	15000 nM	C=CC(=O)NCc1nn(-c2ccc(OC(F)(F)F)cc2)c2nccc(N[C@H]3C[C@H](O)C3)c12 [Compound 85, N-((4-((3-hydroxycyclobutyl)amino)-1-(4-(trifluoromethoxy)phenyl)-1H-pyrazolo[3,4-b]pyridin-3-yl)methyl)acrylamide]
23 nM	33 nM	190 nM	520 nM	C=CC(=O)NCc1nn(-c2ccc(S(F)(F)(F)(F)F)cc2)c2nccc(CO)c12 [Compound 87, N-((4-(Hydroxymethyl)-1-(4-(pentafluoro-λ^6-sulfanyl)phenyl)-1H-pyrazolo[3,4-b]pyridin-3-yl)methyl)acrylamide]
44 nM	28.5 nM	66 nM	41000 nM	C=CC(=O)NCc1nn(-c2ccc(OC(F)(F)F)cc2)c2nccc(N3CCC(O)CC3)c12 [Compound 91, N-((4-(4-hydroxypiperidin-1-yl)-1-(4-(trifluoromethoxy)phenyl)-1H-pyrazolo[3,4-b]pyridin-3-yl)methyl)acrylamide]
110 nM	52 nM	780 nM	13000 nM	C=CC(=O)NCc1nn(-c2ccc(OC(F)(F)F)cc2)c2nccc(N3CC(N)C3)c12 [Compound 92, N-((4-(3-aminoazetidin-1-yl)-1-(4-(trifluoromethoxy)phenyl)-1H-pyrazolo[3,4-b]pyridin-3-yl)methyl)acrylamide]
170 nM	22 nM	710 nM	570 nM	C=CC(=O)N(C)Cc1nn(-c2ccc(OC(F)(F)F)cc2)c2nccc([C@@H](O)CO)c12 [Compound 93, (R)-N-((4-(1,2-dihydroxyethyl)-1-(4-(trifluoromethoxy)phenyl)-1H-pyrazolo[3,4-b]pyridin-3-yl)methyl)-N-methylacrylamide]
10 nM	3.7 nM	30 nM	38 nM	Cc1ccnc2c1c(C1CN(C(=O)/C=C/CO)C1)nn2-c1ccc(OC(F)(F)F)cc1 [Compound 96, (E)-4-Hydroxy-1-(3-(4-methyl-1-(4-(trifluoromethoxy)phenyl)-1H-pyrazolo[3,4-b]pyridin-3-yl)azetidin-1-yl)but-2-en-1-one]
78 nM	58 nM	520 nM	570 nM	C[C@H](O)/C=C/C(=O)N1CC(c2nn(-c3ccc(OC(F)(F)F)cc3)c3nccc(CO)c23)C1 [Compound 97, (S,E)-4-hydroxy-1-(3-(4-(hydroxymethyl)-1-(4-(trifluoromethoxy)phenyl)-1H-pyrazolo[3,4-b]pyridin-3-yl)azetidin-1-yl)pent-2-en-1-one]
3.3 nM	5 nM	28 nM	87 nM	O=C(/C=C\Cl)NCc1nn(-c2ccc(OC(F)(F)F)cc2)c2nccc(CO)c12 [Compound 99, (Z)-3-Chloro-N-((4-(hydroxymethyl)-1-(4-(trifluoromethoxy)phenyl)-1H-pyrazolo[3,4-b]pyridin-3-yl)methyl)acrylamide]
10 nM	3.3 nM	3.5 nM	8.8 nM	O=C(/C=C/Cl)N1CC(c2nn(-c3ccc(OC(F)(F)F)cc3)c3nccc(CO)c23)C1 [Compound 102, (E)-3-Chloro-1-(3-(4-(hydroxymethyl)-1-(4-(trifluoromethoxy)phenyl)-1H-pyrazolo[3,4-b]pyridin-3-yl)azetidin-1-yl)prop-2-en-1-one]
180 nM	82.5 nM	3350 nM	50000 nM	O=C(/C=C/CO)N1CC(c2nn(-c3ccc(OC(F)(F)F)cc3)c3ccnc(N4CC(O)C4)c23)C1 [Compound 103, (E)-4-hydroxy-1-(3-(4-(3-hydroxyazetidin-1-yl)-1-(4-(trifluoromethoxy)phenyl)-1H-pyrazolo[4,3-c]pyridin-3-yl)azetidin-1-yl)but-2-en-1-one]
1000 nM	450 nM	620 nM	50000 nM	C=CC(=O)NCc1nn(-c2ccc(OC(F)(F)F)cc2)c2nccc(CN(C)C)c12 [Compound 105, N-((4-((dimethylamino)methyl)-1-(4-(trifluoromethoxy)phenyl)-1H-pyrazolo[3,4-b]pyridin-3-yl)methyl)acrylamide]
15.5 nM	6.75 nM	61 nM	935 nM	C=CC(=O)NCc1nn(-c2ccc(OC(F)(F)F)cc2)c2nccc(N3CC(O)C3)c12 [Compound 106, N-((4-(3-hydroxyazetidin-1-yl)-1-(4-(trifluoromethoxy)phenyl)-1H-pyrazolo[3,4-b]pyridin-3-yl)methyl)acrylamide]
280 nM	36 nM	960 nM	50000 nM	C=CC(=O)NCc1nn(-c2ccc(OC(F)(F)F)cc2)c2nccc(N3CC(N(C)C)C3)c12 [Compound 107, N-((4-(3-(dimethylamino)azetidin-1-yl)-1-(4-(trifluoromethoxy)phenyl)-1H-pyrazolo[3,4-b]pyridin-3-yl)methyl)acrylamide]
23 nM	5.15 nM	7.8 nM	18 nM	C=C(Cl)C(=O)N1CC(c2nn(-c3ccc(OC(F)(F)F)cc3)c3nccc([C@H](O)CO)c23)C1 [Compound 109, (S)-2-Chloro-1-(3-(4-(1,2-dihydroxyethyl)-1-(4-(trifluoromethoxy)phenyl)-1H-pyrazolo[3,4-b]pyridin-3-yl)azetidin-1-yl)prop-2-en-1-one]
19 nM	4.3 nM	8 nM	17 nM	C=C(Cl)C(=O)N1CC(c2nn(-c3ccc(OC(F)(F)F)cc3)c3nccc([C@@H](O)CO)c23)C1 [Compound 110, (R)-2-chloro-1-(3-(4-(1,2-dihydroxyethyl)-1-(4-(trifluoromethoxy)phenyl)-1H-pyrazolo[3,4-b]pyridin-3-yl)azetidin-1-yl)prop-2-en-1-one]
19 nM	4.5 nM	6.5 nM	20 nM	C=CC(=O)N1CC(c2nn(-c3ccc(OC(F)(F)F)cc3)c3nccc([C@H](O)CO)c23)C1 [Compound 113, (S)-1-(3-(4-(1,2-Dihydroxyethyl)-1-(4-(trifluoromethoxy)phenyl)-1H-pyrazolo[3,4-b]pyridin-3-yl)azetidin-1-yl)prop-2-en-1-one]
